{"source": "patent US4241083A", "about": "“Germicidal composition for agriculture and horticulture” (priority 1978, dated 1980)", "key": {"[1]": {"system": "Sphaerotheca humuli", "assay": "Prevention effect for powdery mildew on strawberries (Ex. 22)", "type": "in vivo", "conditions": "for Germicidal damage to seedlings: strawberry seedlings; for Percentage of leaf area with disease spots / Percentage of leaves attacked with the disease / Prevention value per leaf (Perfect prevention = 100): third and ninth days, read fifteenth day after inoculation", "description": "The prevention effect for powdery mildew on strawberries caused by Sphaerotheca humuli was examined in the following manner.\nStrawberry seedlings (3-4 leaves) of Danar variety dug up and planted in a pot in two row of three without drying the roots was inoculated with the above germ by brushing on the spores from a strawberry leaves attacked with powdery mildew.\nAn aqueous solution of sec-butyl 2-(2-hydroxyethylamino)-3-benzoylpropionate hydrochloride was sprayed on the test plant on the third and ninth days after the seedlings were inoculated with the germ.\n(§1) The leaf area on which powdery mildew spots appeared was measured on the fifteenth day after the seedlings were inoculated with the germ. The spotted area is expressed as a prevention value."}, "[2]": {"system": "apple canker", "conditions": "cited from earlier work"}, "[3]": {"assay": "Toxicity, LD50 for a rat", "conditions": "in vivo"}, "[4]": {"system": "Erysiphe cichoracearum", "assay": "Prevention effect for powdery mildew on eggplants (Ex. 23)", "type": "in vivo", "conditions": "emulsion; for Germicidal damage to seedlings: eggplant seedlings; for Percentage of leaf area with disease spots / Percentage of leaves attacked with the disease / Prevention value per leaf (Perfect prevention = 100): third or ninth days, read fifteenth day after inoculation", "method": "The emulsion was prepared by blending 25 g of ethyl 2-(2-hydroxyethylamino)-3-benzoylpropionate, 25 ml of isopropanol, 3 g of Demol T (formalin condensed naphthalenesulfonate available from Kao Sekken Inc.), 2 g of Emal 10 (sodium lauryl sulphate available from Kao Sekken Inc.) and 45 g of water.\nThe prevention effect of the emulsion prepared above for powdery mildew on eggplants caused by Erysiphe cichoracearum was examined in the following manner.\nEggplant seedlings of Shinkitsushin variety planted in sections in two rows of three were inoculated with the above germ by brushing on spores from other eggplant leaf attacked with the powdery mildew.\nAn aqueous solution of ethyl 2-(2-hydroxyethylamino)-3-benzoylpropionate (2000 ppm and 2500 ppm) was sprayed on the test plant on the third or ninth days after the seedlings were inoculated with the germ by means of glass sprayer.\nas §1"}, "[5]": {"assay": "Toxicity, LD50 for a mouse", "conditions": "in vivo"}, "[6]": {"system": "Sphaerotheca fuliginea", "assay": "Prevention effect for powdery mildew on cucumbers (Ex. 20, 21)", "type": "in vivo", "conditions": "Table 6; for Germicidal damage to seedlings: cucumber seedlings; for Percentage of leaf area with disease spots / Percentage of leaves attacked with the disease / Prevention value per leaf (Perfect prevention = 100): third and ninth days, read fifteenth day after inoculation", "method": "The prevention effect for powdery mildew on cucumbers caused by Sphaerotheca fuliginea was examined in the following manner.\nCucumber seedlings (bifoliate age) of Tokiwa Hikari No. 3 (p type) variety planted in sections of two rows of three were inoculated with the above germ by brushing on spores from a cucumber leaf attacked with powdery mildew. […]\nThe leaf area on which powdery mildew spots appeared was measured on the fifteenth day after the seedlings were inoculated with the germ. The spotted area is expresses as a prevention value.\nThe same experiment as Example 20 was carried out except that isopropyl 2-(2-hydroxyethylamino)-3-benzoyl-propionate hydrochloride was used instead of ethyl 2-(2-hydroxyethylamino)-3-benzoylpropionate hydrochloride."}, "[7]": {"system": "Valsa ceratosperma", "assay": "Length of disease spots on cut apple branches immersed in germicide before inoculation (Ex. 16)", "type": "in vivo", "conditions": "25° C.", "method": "Branches of Delicious apple (branch diameter: about 1 cm. thick) grown for 1-2 years were cut to 10 cm. length. The cut branches were dried in a low temperature chamber (3° C.) until the water content of the cut branches became 50%. The dried cut branches were immersed in an aqueous solution of ethyl 2-(2-hydroxyethylamino)-3-benzoylpropionate hydrochloride (500 ppm, 1000 ppm and 2500 ppm) for one minute and then dried.\nEach cut branch was end bored by a white heated 8 mm diameter cork borer. Valsa ceratosperma, previously cultured for four days on a potato dextrose-agar culture medium, was introduced into the branch by inoculating the branch with the Valsa ceratosperma containing culture by means of the sterilized cork borer. The branches prepared in this way were placed on wet filter paper spread in a polyethylene tray. The tray was inserted into a polyethylene bag which was sealed and then the bag was put into a thermostat (25° C.) for various controlled times.\nAfter removal from the thermostat, the length of disease spots on each branch was measured.\nA similar experiment for comparison was carried out using Benomyl, i.e. methyl-1-(buthylcarbamoyl)-2-benzimidazole carbamate as the germicide. The results of the comparative experiment and also a control experiment, in which the dried cut branches were not immersed in germicide (blank), are also shown in Table 2."}}, "data": [{"compound": "CCC(C)OC(=O)C(CC(=O)c1ccccc1)NCCO.Cl", "note": "(stereo not drawn) [sec-butyl 2-(2-hydroxyethylamino)-3-benzoylpropionate hydrochloride]", "values": [{"measurement": "Germicidal damage to seedlings", "setting": "[1]; 1000 ppm", "value": "none"}, {"measurement": "Percentage of leaf area with disease spots", "setting": "[1]; 1000 ppm", "value": 46.1, "unit": "%"}, {"measurement": "Percentage of leaves attacked with the disease", "setting": "[1]; 1000 ppm", "value": 83.3, "unit": "%"}, {"measurement": "Prevention value per leaf (Perfect prevention = 100)", "setting": "[1]; 1000 ppm", "value": 40.4}, {"measurement": "Germicidal damage to seedlings", "setting": "[1]; 2000 ppm", "value": "none"}, {"measurement": "Percentage of leaf area with disease spots", "setting": "[1]; 2000 ppm", "value": 0, "unit": "%"}, {"measurement": "Percentage of leaves attacked with the disease", "setting": "[1]; 2000 ppm", "value": 0, "unit": "%"}, {"measurement": "Prevention value per leaf (Perfect prevention = 100)", "setting": "[1]; 2000 ppm", "value": 100}, {"measurement": "Germicidal damage to seedlings", "setting": "[1]; 3000 ppm", "value": "none"}, {"measurement": "Percentage of leaf area with disease spots", "setting": "[1]; 3000 ppm", "value": 0, "unit": "%"}, {"measurement": "Percentage of leaves attacked with the disease", "setting": "[1]; 3000 ppm", "value": 0, "unit": "%"}, {"measurement": "Prevention value per leaf (Perfect prevention = 100)", "setting": "[1]; 3000 ppm", "value": 100}]}, {"compound": "COC(=O)NC(=S)Nc1ccccc1NC(=S)NC(=O)OC", "note": "[thiophanate methyl, 1,2-bis(3-methylcarbonyl-2-thioureido)]", "values": [{"measurement": "effect after the canker attacks", "setting": "[2]", "value": "can only weakly prevent the progress of the disease"}]}, {"compound": "CCOC(=O)C(CC(=O)c1ccccc1)NCCO", "note": "(stereo not drawn) [ethyl 2-(2-hydroxyethylamino)-3-benzoylpropionate]", "values": [{"measurement": "LD50", "setting": "[3]", "value": 4790, "unit": "mg/kg"}, {"measurement": "Germicidal damage to seedlings", "setting": "[4]; 2000 ppm", "value": "none"}, {"measurement": "Percentage of leaf area with disease spots", "setting": "[4]; 2000 ppm", "value": 0, "unit": "%"}, {"measurement": "Percentage of leaves attacked with the disease", "setting": "[4]; 2000 ppm", "value": 0, "unit": "%"}, {"measurement": "Prevention value per leaf (Perfect prevention = 100)", "setting": "[4]; 2000 ppm", "value": 100}, {"measurement": "Germicidal damage to seedlings", "setting": "[4]; 2500 ppm", "value": "none"}, {"measurement": "Percentage of leaf area with disease spots", "setting": "[4]; 2500 ppm", "value": 0, "unit": "%"}, {"measurement": "Percentage of leaves attacked with the disease", "setting": "[4]; 2500 ppm", "value": 0, "unit": "%"}, {"measurement": "Prevention value per leaf (Perfect prevention = 100)", "setting": "[4]; 2500 ppm", "value": 100}, {"measurement": "LD50", "setting": "[5]", "value": 7600, "unit": "mg/kg"}]}, {"compound": "CC(C)OC(=O)C(CC(=O)c1ccccc1)NCCO.Cl", "note": "(stereo not drawn) [isopropyl 2-(2-hydroxyethylamino)-3-benzoyl-propionate hydrochloride]", "values": [{"measurement": "Germicidal damage to seedlings", "setting": "[6]; 1500 ppm", "value": "none"}, {"measurement": "Percentage of leaf area with disease spots", "setting": "[6]; 1500 ppm", "value": 8.9, "unit": "%"}, {"measurement": "Percentage of leaves attacked with the disease", "setting": "[6]; 1500 ppm", "value": 55.6, "unit": "%"}, {"measurement": "Prevention value per leaf (Perfect prevention = 100)", "setting": "[6]; 1500 ppm", "value": 88.5}, {"measurement": "Germicidal damage to seedlings", "setting": "[6]; 2000 ppm", "value": "none"}, {"measurement": "Percentage of leaf area with disease spots", "setting": "[6]; 2000 ppm", "value": 0, "unit": "%"}, {"measurement": "Percentage of leaves attacked with the disease", "setting": "[6]; 2000 ppm", "value": 0, "unit": "%"}, {"measurement": "Prevention value per leaf (Perfect prevention = 100)", "setting": "[6]; 2000 ppm", "value": 100}, {"measurement": "Germicidal damage to seedlings", "setting": "[6]; 2500 ppm", "value": "none"}, {"measurement": "Percentage of leaf area with disease spots", "setting": "[6]; 2500 ppm", "value": 0, "unit": "%"}, {"measurement": "Percentage of leaves attacked with the disease", "setting": "[6]; 2500 ppm", "value": 0, "unit": "%"}, {"measurement": "Prevention value per leaf (Perfect prevention = 100)", "setting": "[6]; 2500 ppm", "value": 100}]}, {"compound": "CCCCNC(=O)n1c(NC(=O)OC)nc2ccccc21", "note": "[methyl-1-(buthylcarbamoyl)-2-benzimidazole carbamate, reference compound]", "values": [{"measurement": "effect after the canker attacks", "setting": "[2]", "value": "can only weakly prevent the progress of the disease"}, {"measurement": "Length of disease spot", "setting": "[7]; 500 ppm, after 3 days", "value": 1.0, "unit": "mm"}, {"measurement": "Length of disease spot", "setting": "[7]; 500 ppm, after 5 days", "value": 1.0, "unit": "mm"}, {"measurement": "Length of disease spot", "setting": "[7]; 500 ppm, after 7 days", "value": 1.8, "unit": "mm"}, {"measurement": "Length of disease spot", "setting": "[7]; 1000 ppm, after 3 days", "value": 0.5, "unit": "mm"}, {"measurement": "Length of disease spot", "setting": "[7]; 1000 ppm, after 5 days", "value": 0.5, "unit": "mm"}, {"measurement": "Length of disease spot", "setting": "[7]; 1000 ppm, after 7 days", "value": 1.0, "unit": "mm"}, {"measurement": "Length of disease spot", "setting": "[7]; 2500 ppm, after 3 days", "value": 0, "unit": "mm"}, {"measurement": "Length of disease spot", "setting": "[7]; 2500 ppm, after 5 days", "value": 0, "unit": "mm"}, {"measurement": "Length of disease spot", "setting": "[7]; 2500 ppm, after 7 days", "value": 0, "unit": "mm"}]}]}
